28 compounds from patent US11578087B2, “Oxaborole esters and uses thereof” (priority 2016, dated 2023) can be followed below.

Structures are written as SMILES.

Experiment [1] deals with IL3000 T. congolense (drug sensitive) strain. Kind of experiment: In vitro Alamar Blue 72 h drug sensitivity assay for T. congolense. The format is cell-based, Trypanosoma congolense. To be noted: Trypanosoma congolense, 72 h, bloodstream form, 69 h + 3 h Resazurin, 34° C., read-out: IC50: I Org. Growth T. congolense 3 d. A digest of the protocol:
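IC50 values derive from 11-point curves averaged over at least three independent runs, with fluorescence read at 536 nm excitation and 588 nm emission. Resazurin was added for a final 3 h after 69 h compound exposure of bloodstream forms (HMI medium, 20% bovine serum, 34° C, 5% CO2).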
Background: Alamar Blue is a resazurin reagent that responds to reducing activity.

The test system of experiment [2] is T. cruzi amastigote (Td Tomato-modified) in Vero cells. Kind of experiment: In vitro IC50 measurement of T. cruzi amastigote killing using Td Tomato-modified T. cruzi. The format is cell-based. To be noted: Trypanosoma cruzi, 72 h, fluorescence, read-out: IC50: I Org. amastigote Growth T. cruzi 3 d. A digest of the protocol: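 IC50/IC90 came from nonlinear regression of Day 3 minus Day 0 fluorescence (544/612 nm), correcting for input parasites. Final compound concentrations spanned 5 nM–5 uM on Td Tomato T. cruzi-infected Vero cells, 72 h at 37 °C.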

In the case of `Cc1c(C(=O)N[C@H](C(=O)OCc2ccc(C(F)(F)F)cc2)C(C)C)ccc2c1B(O)OC2` [Example 6-041, 4-Trifluoromethylbenzyl (1-hydroxy-7-methyl-1,3-dihydrobenzo[c][1,2]oxaborole-6-carbonyl)-L-valinate], the IC50 (usually the concentration needed to halve the response being measured) was below 0.5 nM in experiment [1] and at most 20 nM in experiment [2].

Regarding `Cc1c(C(=O)N[C@H](C(=O)OCC2COCCOC2)C(C)C)ccc2c1B(O)OC2` [Example 6-157, (1,4-Dioxepan-6-yl)methyl (1-hydroxy-7-methyl-1,3-dihydrobenzo[c][1,2]oxaborole-6-carbonyl)-L-valinate], the half-maximal inhibitory concentration (IC50) in experiment [1] is below 0.5 nM; in experiment [2], 21 to 999 nM.

For `Cc1c(C(=O)N[C@H](C(=O)OCC(CO)CO)C(C)C)ccc2c1B(O)OC2` [Example 6-149, 3-hydroxy-2-(hydroxymethyl)propyl (1-hydroxy-7-methyl-1,3-dihydrobenzo[c][1,2]oxaborole-6-carbonyl)-L-valinate], the IC50 is 10 to 5000 nM in experiment [1] and at least 1000 nM in experiment [2].

`Cc1c(C(=O)N[C@H](C(=O)OCC2CCN(C)CC2)C(C)C)ccc2c1B(O)OC2` [Example 6-114, (1-Methylpiperidin-4-yl)methyl (1-hydroxy-7-methyl-1,3-dihydrobenzo[c][1,2]oxaborole-6-carbonyl)-L-valinate]: the IC50 in experiment [1] fell in the range of 0.51 to 9.99 nM; in experiment [2], 21 to 999 nM.

In the case of `Cc1c(C(=O)N[C@H](C(=O)OCc2cccc(Cl)c2)C(C)C)ccc2c1B(O)OC2` [Example 6-043, 3-Chlorobenzyl (1-hydroxy-7-methyl-1,3-dihydrobenzo[c][1,2]oxaborole-6-carbonyl)-L-valinate], the values for the IC50 in experiment [1] and in experiment [2] were below 0.5 nM and at most 20 nM, respectively.

`Cc1c(C(=O)N[C@H](C(=O)OCc2ncc[nH]2)C(C)C)ccc2c1B(O)OC2` [Example 6-143, (1H-Imidazol-2-yl)methyl (1-hydroxy-7-methyl-1,3-dihydrobenzo[c][1,2]oxaborole-6-carbonyl)-L-valinate]: the figures for the IC50 in experiment [1] and in experiment [2] were 10 to 5000 nM and at least 1000 nM, respectively.

Regarding `Cc1c(C(=O)N[C@H](C(=O)OCc2cccc(CN3CCN(C)CC3)c2)C(C)C)ccc2c1B(O)OC2` [Example 6-082, 3-((4-Methylpiperazin-1-yl)methyl)benzyl (1-hydroxy-7-methyl-1,3-dihydrobenzo[c][1,2]oxaborole-6-carbonyl)-L-valinate], the IC50 was 0.51 to 9.99 nM in experiment [1] and 21 to 999 nM in experiment [2].

With `COC(=O)[C@@H](NC(=O)c1ccc2c(c1C)B(O)OC2)C(C)C` [Example 6-069, Methyl (1-hydroxy-7-methyl-1,3-dihydrobenzo[c][1,2]oxaborole-6-carbonyl)-L-valinate], the IC50 in experiment [1] is 0.51 to 9.99 nM; in experiment [2], 21 to 999 nM.

For `Cc1c(C(=O)N[C@H](C(=O)OCCN2CCCOCC2)C(C)C)ccc2c1B(O)OC2` [Example 6-214, 2-(1,4-oxazepan-4-yl)ethyl (1-hydroxy-7-methyl-1,3-dihydrobenzo[c][1,2]oxaborole-6-carbonyl)-L-valinate], the IC50 in experiment [1] is 0.51 to 9.99 nM; in experiment [2] it was at least 1000 nM.

On to `Cc1c(C(=O)N[C@H](C(=O)OCCN2CCCC2)C(C)C)ccc2c1B(O)OC2` [Example 6-095, 2-(Pyrrolidin-1-yl)ethyl (1-hydroxy-7-methyl-1,3-dihydrobenzo[c][1,2]oxaborole-6-carbonyl)-L-valinate], for which the IC50 in experiment [1] was 0.51 to 9.99 nM; in experiment [2] it was at least 1000 nM.

For the compound `Cc1c(C(=O)N[C@H](C(=O)OC2CCC2)C(C)C)ccc2c1B(O)OC2` [Example 6-136, Cyclobutyl (1-hydroxy-7-methyl-1,3-dihydrobenzo[c][1,2]oxaborole-6-carbonyl)-L-valinate], the IC50 in experiment [1] is below 0.5 nM; in experiment [2], at most 20 nM.

Turning to `CCOc1c(C(=O)N[C@H](C(=O)OCc2ccccc2)C(C)C)ccc2c1B(O)OC2` [Example 6-192, Benzyl (7-ethoxy-1-hydroxy-1,3-dihydrobenzo[c][1,2]oxaborole-6-carbonyl)-L-valinate], the IC50 in experiment [1] was 0.51 to 9.99 nM; in experiment [2], at least 1000 nM.

Regarding `COCCOC(=O)[C@@H](NC(=O)c1ccc2c(c1C)B(O)OC2)C(C)C` [Example 6-107, 2-Methoxyethyl (1-hydroxy-7-methyl-1,3-dihydrobenzo[c][1,2]oxaborole-6-carbonyl)-L-valinate], the IC50 in experiment [1] was below 0.5 nM; in experiment [2], at most 20 nM.

As to `CC[S+]([O-])c1ccc(COC(=O)[C@@H](NC(=O)c2ccc3c(c2C)B(O)OC3)C(C)C)cc1` (stereo partly drawn) [Example 6-094, 4-(Ethylsulfinyl)benzyl (1-hydroxy-7-methyl-1,3-dihydrobenzo[c][1,2]oxaborole-6-carbonyl)-L-valinate], the IC50 in experiment [1] fell in the range of 0.51 to 9.99 nM; in experiment [2], 21 to 999 nM.

In the case of `Cc1c(C(=O)N[C@H](C(=O)OCc2cccc(C(F)(F)F)c2)C(C)C)ccc2c1B(O)OC2` [Example 6-046, 3-Trifluoromethylbenzyl (1-hydroxy-7-methyl-1,3-dihydrobenzo[c][1,2]oxaborole-6-carbonyl)-L-valinate], the IC50 in experiment [1] is below 0.5 nM; in experiment [2], at most 20 nM.

Regarding `Cc1c(C(=O)N[C@H](C(=O)OCCN2CC3(COC3)C2)C(C)C)ccc2c1B(O)OC2` [Example 6-218, 2-(2-oxa-6-azaspiro[3.3]heptan-6-yl)ethyl (1-hydroxy-7-methyl-1,3-dihydrobenzo[c][1,2]oxaborole-6-carbonyl)-L-valinate], the IC50 in experiment [1] is 10 to 5000 nM; in experiment [2] it was at least 1000 nM.

In the case of `Cc1c(C(=O)N[C@H](C(=O)OCc2ccc(F)cc2)[C@H](C)OCc2ccc(F)cc2)ccc2c1B(O)OC2` [Example 6-097, 4-Fluorobenzyl O-(4-fluorobenzyl)-N-(1-hydroxy-7-methyl-1,3-dihydrobenzo[c][1,2]oxaborole-6-carbonyl)-L-allothreoninate], the values for the IC50 in experiment [1] and in experiment [2] were 0.51 to 9.99 nM and 21 to 999 nM, respectively.

Turning to `CCc1c(C(=O)N[C@H](C(=O)OCc2ccc(S(C)(=O)=O)cc2)C(C)C)ccc2c1B(O)OC2` [Example 6-076, 4-(Methylsulfonyl)benzyl (7-ethyl-1-hydroxy-1,3-dihydrobenzo[c][1,2]oxaborole-6-carbonyl)-L-valinate], the IC50 in experiment [1] was in the range of 0.51 to 9.99 nM; in experiment [2] it was 21 to 999 nM.

`Cc1c(C(=O)N[C@@H](C(=O)OCc2ccc(F)cc2)C(C)C)ccc2c1B(O)OC2` [Example 6-087, 4-Fluorobenzyl (1-hydroxy-7-methyl-1,3-dihydrobenzo[c][1,2]oxaborole-6-carbonyl)-D-valinate]: the results for the IC50 in experiment [1] and in experiment [2] were 10 to 5000 nM and at least 1000 nM, respectively.

On to `CC(C)[C@H](NC(=O)c1ccc2c(c1C(F)(F)F)B(O)OC2)C(=O)OCc1ccccc1` [Example 6-071, Benzyl (1-hydroxy-7-(trifluoromethyl)-1,3-dihydrobenzo[c][1,2]oxaborole-6-carbonyl)-L-valinate], for which the IC50 in experiment [1] lay within 10 to 5000 nM; in experiment [2] it was 21 to 999 nM.

In the case of `Cc1c(C(=O)N[C@H](C(=O)OCc2ccc(F)cc2)C(C)(C)O)ccc2c1B(O)OC2` [Example 6-169, 4-Fluorobenzyl (S)-3-hydroxy-2-(1-hydroxy-7-methyl-1,3-dihydrobenzo[c][1,2]oxaborole-6-carboxamido)-3-methylbutanoate], the IC50 is below 0.5 nM in experiment [1] and at most 20 nM in experiment [2].

For `Cc1c(C(=O)N[C@H](C(=O)OCc2cc(C(F)(F)F)ncn2)C(C)C)ccc2c1B(O)OC2` [Example 6-161, (6-(trifluoromethyl)pyrimidin-4-yl)methyl (1-hydroxy-7-methyl-1,3-dihydrobenzo[c][1,2]oxaborole-6-carbonyl)-L-valinate], the IC50 in experiment [1] was below 0.5 nM; in experiment [2] it was at most 20 nM.

In the case of `Cc1c(C(=O)N[C@H](C(=O)OCC2(F)CCOCC2)C(C)C)ccc2c1B(O)OC2` [Example 6-226, (4-fluorotetrahydro-2H-pyran-4-yl)methyl (1-hydroxy-7-methyl-1,3-dihydrobenzo[c][1,2]oxaborole-6-carbonyl)-L-valinate], the values for the IC50 in experiment [1] and in experiment [2] were below 0.5 nM and at most 20 nM, respectively.

Consider `CC(C)[C@H](NC(=O)c1ccc2c(c1F)B(O)OC2)C(=O)OCc1ccccc1` [Example 6-035, Benzyl (7-fluoro-1-hydroxy-1,3-dihydrobenzo[c][1,2]oxaborole-6-carbonyl)-L-valinate], for which the IC50 in experiment [1] is 10 to 5000 nM; in experiment [2], at least 1000 nM.

As to `Cc1c(C(=O)NC2(C(=O)OCc3ccccn3)COC2)ccc2c1B(O)OC2` [Example 6-223, Pyridin-2-ylmethyl 3-(1-hydroxy-7-methyl-1,3-dihydrobenzo[c][1,2]oxaborole-6-carboxamido)oxetane-3-carboxylate], the IC50 in experiment [1] lay in the range of 10 to 5000 nM; in experiment [2] it was 21 to 999 nM.

On to `CCOc1c(C(=O)N[C@H](C(=O)OCc2ccc(F)cc2)C(C)C)ccc2c1B(O)OC2` [Example 6-196, 4-Fluorobenzyl (7-ethoxy-1-hydroxy-1,3-dihydrobenzo[c][1,2]oxaborole-6-carbonyl)-L-valinate], for which the IC50 in experiment [1] is 0.51 to 9.99 nM; in experiment [2], at least 1000 nM.

On to `Cc1c(C(=O)N[C@H](C(=O)OCc2ccc(S(C)(=O)=O)c(CN(C)C)c2)C(C)C)ccc2c1B(O)OC2` [Example 6-110, 3-((Dimethylamino)methyl)-4-(methylsulfonyl)benzyl (1-hydroxy-7-methyl-1,3-dihydrobenzo[c][1,2]oxaborole-6-carbonyl)-L-valinate], for which the values for the IC50 in experiment [1] and in experiment [2] were 0.51 to 9.99 nM and 21 to 999 nM, respectively.

Consider `Cc1c(C(=O)N[C@H](C(=O)OCC2CCOCC2)C(C)C)ccc2c1B(O)OC2` [Example 6-172, (tetrahydro-2H-pyran-4-yl)methyl (1-hydroxy-7-methyl-1,3-dihydrobenzo[c][1,2]oxaborole-6-carbonyl)-L-valinate], for which the IC50 in experiment [1] was below 0.5 nM; in experiment [2], at most 20 nM.
